According to patent US8969565B2, “Imidazo[1,2-b]pyridazine-based compounds, compositions comprising them, and methods of their use” (Lexicon Pharmaceuticals, Inc., priority 2012, dated 2015):

What was measured:
AAK1 [1] = target: T1, AAK1 (Homo sapiens, UniProt Q2M2I8); assay: P81 filter plate assay; format: biochemical; settings: full-length human AAK1, Mu2 substrate
T1 construct: HA; expressed in transfected cells; host or cells: HEK293F
Protocol: Compounds were serially diluted into a Labcyte LDV plate (Labcyte, cat#LP-0200) using a Mutiprobe (PerkinElmer) and Biomek FX (Beckman Coulter) so that the highest compound concentration was at 96 μM. Compounds were then pinged (75 nL per well) into a Greiner 384-well reaction plate (Greiner, #781076) using an ECHO 550 Liquid Handler (Labcyte). A total of 12 μl reaction buffer (IMAP buffer containing Tween and DTT, from Molecular Devices) was then added to each well of columns 1 and 13 for the negative controls and 12 μl of 2×AAK1 (0.2 nM full-length human protein, NCBI accession no. NP_055726.2) was added to the remaining wells. Enzyme was then pre-incubated with compound for 10 minutes at RT. Reactions were initiated upon Minitrak (PerkinElmer) addition of 12 μl substrate mix containing 2×Mu2 (0.2 μM, full length human protein), 2× cold ATP (2 μM), and 1.3 μCi of hot ^33P-ATP. Reactions proceeded for one hour at RT. Meanwhile, Millipore 384-well P81 filter plates (Millipore, catalog #MZPHNOW10) were placed on a plate washer (Zoom ZW, from Titertek) and pre-wet with 50 μl 1% phosphoric acid. Kinase reactions were then stopped upon addition of 24 μl of 2% phosphoric acid to each well and the Minitrak was then used to transfer 40 μl from each well into the pre-wet Millipore 384-well P81 filter plates. Reaction mixtures were incubated for 10 minutes at RT in the P81 plates, followed by washing five times with 100 μl/well of 1% phosphoric acid using the Zoom filter washer. The bottom of each filter plate was sealed followed by addition of 20 μl Microscint 40 to each well, sealing the top of the plates with Flashplate cover, and then waiting one hour until reading on the TopCount (PerkinElmer).

AAK1 [2] = target: T1, AAK1; assay: HEK281 cell-based assay (phospho-mu2 Western blot in transfected HEK293F cells); settings: 3 hours incubation, read-out: CBA IC50
How it was run: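 After 3 hours at 37° C. with compound (five 3-fold-spaced concentrations, DMEM+0.5% FBS), transiently transfected HEK293F cells expressing full-length human AAK1 and Flag-tagged mu2 were lysed. mu2 phosphorylation was read by anti-phospho-mu2 immunoblot, normalized against total mu2 by anti-Flag blot.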

T1 sequence (Q2M2I8 1-863 isoform Q2M2I8-2): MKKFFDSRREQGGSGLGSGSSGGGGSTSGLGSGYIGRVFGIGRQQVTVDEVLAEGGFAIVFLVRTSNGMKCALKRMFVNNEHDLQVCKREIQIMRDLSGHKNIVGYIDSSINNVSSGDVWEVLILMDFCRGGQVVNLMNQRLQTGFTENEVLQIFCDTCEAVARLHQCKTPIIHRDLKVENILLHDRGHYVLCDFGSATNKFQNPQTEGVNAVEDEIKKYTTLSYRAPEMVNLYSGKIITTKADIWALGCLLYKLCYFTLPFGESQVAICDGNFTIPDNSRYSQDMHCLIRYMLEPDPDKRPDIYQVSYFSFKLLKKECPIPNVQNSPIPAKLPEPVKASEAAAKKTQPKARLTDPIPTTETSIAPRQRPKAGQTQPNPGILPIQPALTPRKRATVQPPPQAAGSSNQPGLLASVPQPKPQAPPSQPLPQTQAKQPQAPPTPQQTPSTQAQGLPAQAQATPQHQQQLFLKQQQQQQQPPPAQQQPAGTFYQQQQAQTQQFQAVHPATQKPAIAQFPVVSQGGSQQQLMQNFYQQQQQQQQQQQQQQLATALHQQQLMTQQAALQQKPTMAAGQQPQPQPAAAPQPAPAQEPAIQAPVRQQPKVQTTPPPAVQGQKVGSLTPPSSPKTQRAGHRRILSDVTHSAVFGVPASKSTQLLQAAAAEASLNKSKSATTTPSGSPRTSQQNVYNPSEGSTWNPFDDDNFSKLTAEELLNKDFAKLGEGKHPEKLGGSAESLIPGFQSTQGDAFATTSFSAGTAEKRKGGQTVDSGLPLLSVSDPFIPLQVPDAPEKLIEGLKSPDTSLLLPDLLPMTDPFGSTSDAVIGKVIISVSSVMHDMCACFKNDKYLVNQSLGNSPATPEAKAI

COc1ccc(OC)c(-c2cnc3ccc(N4CCN(C(=O)OC(C)C)CC4)nn23)c1 [isopropyl 4-(3-(2,5-dimethoxyphenyl)imidazo[1,2-b]pyridazin-6-yl)piperazine-1-carboxylate]
IC50 (AAK1 [1]): ≤ 10 nM
IC50 (AAK1 [2]): ≤ 100 nM

CC(C)(C)CC(=O)N1CCC[C@H]1CNc1ccc2ncc(-c3ccncc3)n2n1 [(S)-3,3-dimethyl-1-(2-(((3-(pyridin-4-yl)imidazo[1,2-b]pyridazin-6-yl)amino)methyl)pyrrolidin-1-yl)butan-1-one]
IC50 (AAK1 [1]): ≤ 10 nM
IC50 (AAK1 [2]): ≤ 100 nM

COc1ccccc1-c1cnc2ccc(N3CC[C@H](N(C)C(=O)OC(C)(C)C)C3)nn12 [(S)-tert-butyl (1-(3-(2-methoxyphenyl)imidazo[1,2-b]pyridazin-6-yl)pyrrolidin-3-yl)(methyl)carbamate]
IC50 (AAK1 [1]): ≤ 10 nM
IC50 (AAK1 [2]): ≤ 100 nM

CC(C)(C)NC(=O)N1CCC[C@H]1CNc1ccc2ncc(-c3ccncc3)n2n1 [(S)-N-(tert-butyl)-2-(((3-(pyridin-4-yl)imidazo[1,2-b]pyridazin-6-yl)amino)methyl)pyrrolidine-1-carboxamide]
IC50 (AAK1 [1]): ≤ 10 nM
IC50 (AAK1 [2]): ≤ 100 nM

COc1cccc(-c2cnc3ccc(N4CCN(C(=O)OC(C)C)CC4)nn23)c1F [isopropyl 4-(3-(2-fluoro-3-methoxyphenyl)imidazo[1,2-b]pyridazin-6-yl)piperazine-1-carboxylate]
IC50 (AAK1 [1]): ≤ 10 nM
IC50 (AAK1 [2]): ≤ 100 nM

O=C(N1CCCCC1)N1CCN(c2ccc3ncc(-c4ccccn4)n3n2)CC1 [piperidin-1-yl(4-(3-(pyridin-2-yl)imidazo[1,2-b]pyridazin-6-yl)piperazin-1-yl)methanone]
IC50 (AAK1 [1]): ≤ 10 nM
IC50 (AAK1 [2]): ≤ 100 nM

O=C(OC1CCC1)N1CCC[C@H]1CNc1ccc2ncc(-c3ccncc3)n2n1 [(S)-cyclobutyl 2-(((3-(pyridin-4-yl)imidazo[1,2-b]pyridazin-6-yl)amino)methyl)pyrrolidine-1-carboxylate]
IC50 (AAK1 [1]): ≤ 10 nM
IC50 (AAK1 [2]): ≤ 10 nM

CC(=O)Nc1cccc(-c2cnc3ccc(NCCOC4CCCC4)nn23)c1 [N-(3-(6-((2-(cyclopentyloxy)ethyl)amino)imidazo[1,2-b]pyridazin-3-yl)phenyl)acetamide]
IC50 (AAK1 [1]): ≤ 100 nM
IC50 (AAK1 [2]): ≤ 100 nM

CN(C(=O)OC(C)(C)C)[C@H]1CCN(c2ccc3ncc(-c4ccncc4)n3n2)C1 [(S)-tert-butyl methyl(1-(3-(pyridin-4-yl)imidazo[1,2-b]pyridazin-6-yl)pyrrolidin-3-yl)carbamate]
IC50 (AAK1 [1]): ≤ 10 nM
IC50 (AAK1 [2]): ≤ 1000 nM

CC(C)(C)OC(=O)N1CCC[C@H]1CNc1ccc2ncc(-c3ccc(C(N)=O)cc3)n2n1 [(S)-tert-butyl 2-(((3-(4-carbamoylphenyl)imidazo[1,2-b]pyridazin-6-yl)amino)methyl)pyrrolidine-1-carboxylate]
IC50 (AAK1 [1]): ≤ 10 nM
IC50 (AAK1 [2]): ≤ 10 nM

COc1ncccc1-c1cnc2ccc(N3CC[C@H](N(C)C(=O)OCC(F)(F)F)C3)nn12 [(S)-2,2,2-trifluoroethyl (1-(3-(2-methoxypyridin-3-yl)imidazo[1,2-b]pyridazin-6-yl)pyrrolidin-3-yl)(methyl)carbamate]
IC50 (AAK1 [1]): ≤ 10 nM
IC50 (AAK1 [2]): ≤ 100 nM

CC(C)(C)CC(=O)N1CCN(c2ccc3ncc(-c4ccccc4)n3n2)CC1 [3,3-dimethyl-1-(4-(3-phenylimidazo[1,2-b]pyridazin-6-yl)piperazin-1-yl)butan-1-one]
IC50 (AAK1 [1]): ≤ 10 nM
IC50 (AAK1 [2]): ≤ 100 nM

COc1ccc(F)cc1-c1cnc2ccc(N3CCN(C(=O)OC(C)C)CC3)nn12 [isopropyl 4-(3-(5-fluoro-2-methoxyphenyl)imidazo[1,2-b]pyridazin-6-yl)piperazine-1-carboxylate]
IC50 (AAK1 [1]): ≤ 10 nM
IC50 (AAK1 [2]): ≤ 10 nM

CC(C)OC(=O)N1CCN(c2ccc3ncc(-c4cccc(Cl)c4)n3n2)CC1 [isopropyl 4-(3-(3-chlorophenyl)imidazo[1,2-b]pyridazin-6-yl)piperazine-1-carboxylate]
IC50 (AAK1 [1]): ≤ 10 nM
IC50 (AAK1 [2]): ≤ 1000 nM

COc1ncccc1-c1cnc2ccc(N3CCN(C(=O)N4CCCCC4)CC3)nn12 [(4-(3-(2-methoxypyridin-3-yl)imidazo[1,2-b]pyridazin-6-yl)piperazin-1-yl)(piperidin-1-yl)methanone]
IC50 (AAK1 [1]): ≤ 10 nM
IC50 (AAK1 [2]): ≤ 100 nM

CC1(OC(=O)N2CCC[C@H]2CNc2ccc3ncc(Br)n3n2)CCCC1 [(S)-1-methylcyclopentyl 2-(((3-bromoimidazo[1,2-b]pyridazin-6-yl)amino)methyl)pyrrolidine-1-carboxylate]
IC50 (AAK1 [1]): ≤ 10 nM
IC50 (AAK1 [2]): ≤ 1000 nM

COc1ncccc1-c1cnc2ccc(N3CC[C@H](N(C)C(=O)OC(C)(C)C)C3)nn12 [{(S)-1-[3-(2-Methoxy-pyridin-3-yl)-imidazo[1,2-b]pyridazin-6-yl]-pyrolidin-3-yl}-methyl-carbamic acid tert-butyl ester]
IC50 (AAK1 [1]): ≤ 10 nM
IC50 (AAK1 [2]): ≤ 100 nM

COc1ncccc1-c1cnc2ccc(N3CCN(C(=O)OC(C)C)CC3)nn12 [isopropyl 4-(3-(2-methoxypyridin-3-yl)imidazo[1,2-b]pyridazin-6-yl)piperazine-1-carboxylate]
IC50 (AAK1 [1]): ≤ 10 nM
IC50 (AAK1 [2]): ≤ 10 nM

COc1ccccc1-c1cnc2ccc(N3CCN(C(=O)OC(C)C)CC3)nn12 [isopropyl 4-(3-(2-methoxyphenyl)imidazo[1,2-b]pyridazin-6-yl)piperazine-1-carboxylate]
IC50 (AAK1 [1]): ≤ 10 nM
IC50 (AAK1 [2]): ≤ 10 nM

CC(C)SC(=O)N1CCN(c2ccc3ncc(-c4ccccc4)n3n2)CC1 [S-Isopropyl 4-(3-phenylimidazo[1,2-b]pyridazin-6-yl)piperazine-1-carbothioate]
IC50 (AAK1 [1]): ≤ 10 nM
IC50 (AAK1 [2]): ≤ 1000 nM

CC(C)OC(=O)N1CCN(c2ccc3ncc(-c4ccc(CN)cc4)n3n2)CC1 [isopropyl 4-(3-(4-(aminomethyl)phenyl)imidazo[1,2-b]pyridazin-6-yl)piperazine-1-carboxylate]
IC50 (AAK1 [1]): ≤ 10 nM
IC50 (AAK1 [2]): ≤ 10 nM

CC(C)CC(=O)N1CCC[C@H]1CNc1ccc2ncc(-c3cccc(C#N)c3)n2n1 [(S)-3-(6-(((1-(3-methylbutanoyl)pyrrolidin-2-yl)methyl)amino)imidazo[1,2-b]pyridazin-3-yl)benzonitrile]
IC50 (AAK1 [1]): ≤ 10 nM
IC50 (AAK1 [2]): ≤ 100 nM

CC(C)(C)OC(=O)N1CCC[C@H]1CNc1ccc2ncc(C(F)F)n2n1 [(S)-Tert-butyl 2-(((3-(difluoromethyl)imidazo[1,2-b]pyridazin-6-yl)amino)methyl)pyrrolidine-1-carboxylate]
IC50 (AAK1 [1]): ≤ 10 nM
IC50 (AAK1 [2]): ≤ 1000 nM

CC(C)(C)CCN1C(=O)CC[C@H]1CNc1ccc2ncc(-c3ccccc3)n2n1 [(S)-1-(3,3-dimethylbutyl)-5-(((3-phenylimidazo[1,2-b]pyridazin-6-yl)amino)methyl)pyrrolidin-2-one]
IC50 (AAK1 [1]): ≤ 10 nM
IC50 (AAK1 [2]): ≤ 1000 nM

O=C(N1CCCC1)N1CCN(c2ccc3ncc(-c4ccccc4)n3n2)CC1 [(4-(3-phenylimidazo[1,2-b]pyridazin-6-yl)piperazin-1-yl)(pyrrolidin-1-yl)methanone]
IC50 (AAK1 [1]): ≤ 10 nM
IC50 (AAK1 [2]): ≤ 1000 nM

COc1ccccc1-c1cnc2ccc(NC[C@@H]3CCCN3C(=O)OC3CCC3)nn12 [(S)-cyclobutyl 2-(((3-(2-methoxyphenyl)imidazo[1,2-b]pyridazin-6-yl)amino)methyl)pyrrolidine-1-carboxylate]
IC50 (AAK1 [1]): ≤ 10 nM
IC50 (AAK1 [2]): ≤ 100 nM

Cc1cccc(-c2cnc3ccc(NC[C@@H]4CCCN4C(=O)CC(C)C)nn23)c1 [(S)-3-methyl-1-(2-(((3-(m-tolyl)imidazo[1,2-b]pyridazin-6-yl)amino)methyl)pyrrolidin-1-yl)butan-1-one]
IC50 (AAK1 [1]): ≤ 10 nM
IC50 (AAK1 [2]): ≤ 1000 nM

CC(C)(C)OC(=O)N1CCC[C@H]1CNc1ccc2ncc(-c3ccccc3)n2n1 [(S)-tert-butyl 2-(((3-phenylimidazo[1,2-b]pyridazin-6-yl)amino)methyl)pyrrolidine-1-carboxylate]
IC50 (AAK1 [1]): ≤ 10 nM
IC50 (AAK1 [2]): ≤ 10 nM

Oc1cccc(-c2cnc3ccc(NCCOC4CCCC4)nn23)c1 [3-(6-((2-(cyclopentyloxy)ethyl)amino)imidazo[1,2-b]pyridazin-3-yl)phenol]
IC50 (AAK1 [1]): ≤ 10 nM
IC50 (AAK1 [2]): ≤ 1000 nM

CCCOC(=O)N1CCC[C@H]1CNc1ccc2ncc(Br)n2n1 [(S)-propyl 2-(((3-bromoimidazo[1,2-b]pyridazin-6-yl)amino)methyl)pyrrolidine-1-carboxylate]
IC50 (AAK1 [1]): ≤ 10 nM

CC(C)OC(=O)N(C)[C@H]1CCN(c2ccc3ncc(Br)n3n2)C1 [[(S)-1-(3-Bromo-imidazo[1,2-b]pyridazin-6-yl)-pyrrolidin-3-yl]-methyl-carbamic acid isopropyl ester]
IC50 (AAK1 [1]): ≤ 10 nM

CC(C)(C)C(=O)N1CCN(c2ccc3ncc(-c4ccccc4)n3n2)CC1 [2,2-dimethyl-1-(4-(3-phenylimidazo[1,2-b]pyridazin-6-yl)piperazin-1-yl)propan-1-one]
IC50 (AAK1 [1]): ≤ 100 nM
